Earlier results as cited in US20070232672A1, “Pharmaceutical Composition And Method For Treating Neurodegenerative Disorders” (Myriad Genetics, Incorporated, priority 2004, published 2007).
Where two headings read alike, the source gives them in different places.

Assays:
[1] = for efficacy for treating AD: clinical trial (Aisen et al., Reines et al.), rofecoxib at 25 mg daily
[2] = patients having mild cognitive impairment
[3] = Scali et al.
Aβ42 [4] = settings: transgenic mouse model, Koo et al.
[5] = 50 mg and 100 mg doses, human subjects, Lotsch et al.
Aβ42 [6] = settings: CHO cells, Koo et al.

COc1ccc2cc([C@H](C)C(=O)O)ccc2c1 [Naproxen]
efficacy for treating AD [1]: failed to show efficacy

CC12CC3CC(C)(C1)CC(N)(C3)C2 [memantine]
efficacy in treating mild-to-moderate AD ([1]; mild-to-moderate AD): showed efficacy

CS(=O)(=O)c1ccc(C2=C(c3ccccc3)C(=O)OC2)cc1 [rofecoxib]
efficacy for treating AD [1]: failed to show efficacy
prevention of the development of Alzheimer's disease ([2]; large prevention trial): failed to prevent the development of Alzheimer's disease
patients who developed AD ([2]; placebo 4.5%): 6.4%
neuroprotection [3]: provides neuroprotection

C[C@@H](C(=O)O)c1ccc(-c2ccccc2)c(F)c1 [(R)-2-(2-fluoro-4-biphenylyl)propionic acid]
Aβ42 lowering (Aβ42 [4]): lower Aβ42
inhibition of COX activity (COX): negligibly inhibits COX activity
analgesic effect [5]: produced an analgesic effect
Aβ42 lowering (Aβ42 [6]): lower Aβ42
